Key:
[1] = Serum lipid levels in apoE-deficient mice on high cholesterol diet; type: in vivo
Description: ApoE-deficient mice were fed with a high cholesterol diet containing 21% fat and 0.15% cholesterol (PMI LabDiet 40097, Richmond, Ind., USA) from 8-17 weeks of age. […] After completing the treatment, blood samples were collected by direct heart puncture when sacrificing the animals. The serum levels of total cholesterol, LDL, HDL, and triglyceride were measured by enzymatic methods using an automatic analyzer (Model 747, Hitachi Ltd. Co., Tokyo, Japan). The aorta was dissected from the aortic valve to the iliac bifurcation. To identify lipid-rich atherosclerotic lesions, the aorta was rinsed in 50% isopropanol for 2 minutes, incubated in 0.67% Oil-Red-O for 15 minutes, and washed by 10% isopropanol for 2 minutes. Using a dissection microscope, the area of each atherosclerotic lesion was measured with Image Pro Plus software (Version 3.0.1; Media Cybernetics, Inc, Silver Spring, Md., USA) and expressed as percentage of atherosclerotic area/total area of the aorta.

[2] = system: TNF-α release from THP-1 cells after oxLDL stimulation; experiment: oxLDL-induced TNF-α release in THP-1 macrophage culture (ELISA); type: cell-based, human; details: for TNF-α in medium: oxLDL, oxLDL alone 2.64±0.61; for TNFα in medium: oxLDL 10 μg/mL, oxLDL alone 1.70±0.06
Description: (§1) THP-1 cells were grown in the RPMI-1640 medium containing 10% fetal bovine serum at 37° C. in 5% CO2. The cells were differentiated to macrophages after treatment of the culture with 100 nM PMA for 24 hours. The cell suspension (5×10^5) was added in 0.5 mL into each well of the tissue culture plates. For each experiment, naloxone was prepared immediately before use. LPS was dissolved in sterile water and stored at −70° C. in aliquots. LDL was isolated from human endotoxin-free heparin plasma and was oxidized using CuSO4. In brief, LDL (1 mL, 1 mg/mL) was dialyzed in 500 mL phosphate-buffered saline (PBS, pH 7.4) overnight. Copper sulfate was added to a final concentration of 5 μM, and the LDL was allowed to oxidize at room temperature for 24 hours.
(§2) The supernatants were harvested and the TNF-α, IL-6, and MCP-1 levels were determined by ELISA. Superoxide production in the THP-1 cell culture was measured by lucigenin-enhanced chemiluminescence as described previously (Khadour F H, Panas D, Ferdinandy P, et al. Am J Physiol Heart Circ Physiol, 28:H1108-15 2002). LPS-treated THP-1 cells were treated with PBS containing 1.25 mM lucigenin, and counts were obtained for a 10-minute period in a luminometer (Berthold Technologies, Germany) as relative light units (RLU) emitted. Background counts determined in cell-free preparations were subtracted. Superoxide levels were reported as RLU per 10 minutes and were normalized to the volume (mL) of cell suspension added (i.e., RUL/10 min/mL).

C57BL/6 mice = experiment: Carotid artery ligation vascular remodeling model, morphometry; type: in vivo; details: for neointima/media (N/M) ratio: 28 days after surgery, controls 1.4±0.6; for lumen area / neointima area: 28 days; for lumen area: PBS 12859±7258; for neointima area: PBS 33623±9377
From the text: Adult C57BL/6 mice (8-12 weeks) were anesthetized by intraperitoneal injection of sodium pentobarbital. The left common carotid artery was isolated and ligated completely with a 6-0 silk suture near the carotid bifurcation. […] After completing the treatment the animals were sacrificed and the segment of the left common carotid artery just proximal to the ligation was excised, fixed in 4% paraformaldehyde, and embedded in paraffin. Five transverse sections per animal were cut at 100 μm intervals and stained with hematoxylin-eosin. The borders of the internal lumen, internal elastic lamina (IEL), and external elastic lamina (EEL) were traced on a digitizing board using Meta Imaging Series 5.0 software ([…].). The luminal, IEL, and EEL areas were measured. The neointima area was calculated by subtracting the luminal area from the IEL area, and the media area was calculated by subtracting the IEL area from the EEL area. The total vascular area was represented by EEL area. The ratio of neointima to media area (N/M ratio) was calculated. Average values were obtained from morphometric analysis of each section of the animal.
Data were given as mean±SD. The Mann-Whitney U test was used to compare continuous variables between the two groups. […] All statistical analyses were performed using SPSS 12.0 (SPSS Inc. Chicago, Ill., USA). The statistical significance level was set at P<0.05, two-tailed.

microglia = details: cited from earlier work
[3] = system: TNF-α production from the THP-1 cell culture after LPS stimulation; experiment: LPS-induced TNF-α production in PMA-differentiated THP-1 macrophage culture (ELISA); type: cell-based, human; details: for TNF-α in medium: LPS, LPS alone 8.85±0.81; for TNF-α production after LPS: 1 h before 100 ng/mL LPS, 24 h
[4] = system: TNF-α production from the THP-1 cell culture after LPS stimulation; experiment: as above; type: cell-based, human; details: for TNF-α production after LPS: 1 h before 100 ng/mL LPS, 24 h; for TNFα in medium: LPS 100 ng/mL, LPS alone 8.02±0.42
Description: as §1
The TNF-α level in the supernatant was determined by ELISA.
as §2
To investigate the DM effect on macrophage activation, determined the effective DM concentrations were first needed. In a pilot experiment, the effective DM concentration that inhibited TNF-α production from macrophages was examined. […] The THP-1 cell culture was pretreated for 1 hour with various concentrations of DM (1-10^−8 μM) prior to treatment with 100 ng/mL LPS for 24 hours. The TNF-α level in the supernatant was determined by ELISA. […] One μM DM could reduce TNF-α production up to 44 percent in the THP-1 cell culture after LPS stimulation (Table 3). Therefore, subsequent experiments were performed with these effective DM concentrations (0.01, 0.1, and 1 μM).

For `COc1ccc2c(c1)[C@]13CCCC[C@@H]1[C@H](C2)N(C)CC3` [DM, (+)-3-methoxy-17-methyl-9α,13α,14α-morphinan], the “total cholesterol, triglyceride, LDL, and HDL levels” value ([1]; DM treatment for 10 weeks vs controls) was “no significant differences”, the TNF-α in medium ([2]; DM 0.01 μM pretreatment) was 1.80 ± 0.53 ng/mL and the TNF-α in medium ([2]; DM 0.1 μM pretreatment) was 1.75 ± 0.33 ng/mL. For the same molecule, the TNF-α in medium ([2]; DM 1 μM pretreatment) was 1.77 ± 0.42 ng/mL, the “neointima/media (N/M) ratio” value (C57BL/6 mice; DM 5 mg/kg/day 4 weeks, P=NS) was 1.1±0.7 and the “neointima/media (N/M) ratio” value (C57BL/6 mice; DM 10 mg/kg/day 4 weeks) was 0.7±0.3. For the same molecule, the “neointima/media (N/M) ratio” value (C57BL/6 mice; DM 20 mg/kg/day 4 weeks) was 0.4±0.2, the “neointima/media (N/M) ratio” value (C57BL/6 mice; DM 40 mg/kg/day 4 weeks) was 0.5±0.2 and the microglia activation (microglia; 1 μM DM, Liu et al. 2003) was “could inhibit microglia activation”. For the same molecule, the TNF-α in medium ([3]; DM 0.1 μM pretreatment) was 6.42 ± 0.73 ng/mL, the TNF-α in medium ([3]; DM 1 μM pretreatment) was 5.85 ± 1.12 ng/mL and the “TNF-α production after LPS” value ([3]; DM pretreatment 10^−1 μM) was 72 ± 2 % control. The “TNF-α production after LPS” value ([3]; DM pretreatment 10^−4 μM) was 81 ± 9 % control, the “TNF-α production after LPS” value ([3]; DM pretreatment 10^−8 μM) was 95 ± 7 % control and the TNF-α in medium ([4]; DM 0.01 μM pretreatment, LPS, LPS alone 8.85±0.81) was 6.93 ± 0.76 ng/mL. The “TNF-α production after LPS” value ([4]; DM pretreatment 1 μM) was 56 ± 10 % control, the “TNF-α production after LPS” value ([4]; DM pretreatment 10^−2 μM) was 74 ± 4 % control and the “TNF-α production after LPS” value ([4]; DM pretreatment 10^−6 μM) was 83 ± 3 % control. For the same molecule, the “reduction of TNF-α production” value ([4]; One μM DM, THP-1 cell culture after LPS stimulation) was “up to 44%” and the “most effective DM concentrations that suppressed macrophage TNF-α production” value ([4]; THP-1, after LPS stimulation) was 0.01 to 1 µM.

In the case of `C=CCN1CC[C@]23c4c5ccc(O)c4O[C@H]2C(=O)CC[C@@]3(O)[C@H]1C5` [Naloxone, 17-allyl-4,5α-epoxy-3,14-dihydroxymorphinan-6-one], the “total cholesterol, triglyceride, LDL, and HDL levels” value ([1]; naloxone 10, 20, 25 mg/kg/day i.p. 10 weeks vs PBS) is reported as “no significant differences”, the TNFα in medium ([2]; 0.01 μM pretreatment) is reported as 0.85 ± 0.12 ng/mL and the TNFα in medium ([2]; 0.1 μM pretreatment) is reported as 0.62 ± 0.04 ng/mL. For the same molecule, the TNFα in medium ([2]; 1 μM pretreatment) was 0.60 ± 0.05 ng/mL, the lumen area (C57BL/6 mice; 10 mg/kg/day) was 24475±5261 μm^2 and the neointima area (C57BL/6 mice; 10 mg/kg/day) was 20052±4372 μm^2. The lumen area (C57BL/6 mice; 20 mg/kg/day) was 26452±9024 μm^2, the neointima area (C57BL/6 mice; 20 mg/kg/day) was 14233±4040 μm^2 and the lumen area (C57BL/6 mice; 25 mg/kg/day) was 29650±5643 μm^2. For the same molecule, the neointima area (C57BL/6 mice; 25 mg/kg/day) was 13865±3494 μm^2, the “Media area regression coefficient (naloxone)” value (C57BL/6 mice; Naloxone 10 mg/kg/day) was 2950 and the “Neointima area regression coefficient (naloxone)” value (C57BL/6 mice; Naloxone 10 mg/kg/day) was −13951. For the same molecule, the “Total area regression coefficient (naloxone)” value (C57BL/6 mice; Naloxone 10 mg/kg/day) was −11000, the “Lumen area regression coefficient (naloxone)” value (C57BL/6 mice; Naloxone 10 mg/kg/day, Area = B1 + B2 (Naloxone) + B3 (Distance (mm))) was 12016 and the “Lumen area regression coefficient (naloxone)” value (C57BL/6 mice; Naloxone 20 mg/kg/day) was 14033. The “Media area regression coefficient (naloxone)” value (C57BL/6 mice; Naloxone 20 mg/kg/day) was 10001, the “Neointima area regression coefficient (naloxone)” value (C57BL/6 mice; Naloxone 20 mg/kg/day) was −19584 and the “Total area regression coefficient (naloxone)” value (C57BL/6 mice; Naloxone 20 mg/kg/day) was −9582. The “Lumen area regression coefficient (naloxone)” value (C57BL/6 mice; Naloxone 25 mg/kg/day) was 16993, the “Media area regression coefficient (naloxone)” value (C57BL/6 mice; Naloxone 25 mg/kg/day) was 8112 and the “Neointima area regression coefficient (naloxone)” value (C57BL/6 mice; Naloxone 25 mg/kg/day) was −20380. For the same molecule, the “Total area regression coefficient (naloxone)” value (C57BL/6 mice; Naloxone 25 mg/kg/day) was −12267, the “influence of naloxone treatment in regression model of carotid remodeling” value (C57BL/6 mice; multiple regression, independent of the distance to ligation) was “had a statistically significant influence on the lumen, neointima, and total vascular areas” and the “neuron protection / microglia activation” value (microglia; 1 μM naloxone, Liu et al. 2000) was “could protect neurons through inhibition of microglia activation”. For the same molecule, the TNFα in medium ([3]; 0.01 μM pretreatment, LPS 100 ng/mL, LPS alone 8.02±0.42) was 4.28 ± 0.39 ng/mL, the “most effective naloxone concentration range” value ([3]; inhibition of TNF-α production, THP-1, LPS) was 0.01 to 1 µM and the “TNF-α production after LPS” value ([3]; naloxone pretreatment 1 μM) was 55 ± 2 % control. For the same molecule, the “TNF-α production after LPS” value ([3]; naloxone pretreatment 10^−1 μM) was 51 ± 6 % control, the “TNF-α production after LPS” value ([3]; naloxone pretreatment 10^−2 μM) was 53 ± 6 % control and the “TNF-α production after LPS” value ([3]; naloxone pretreatment 10^−3 μM) was 67 ± 3 % control. The “TNF-α production after LPS” value ([3]; naloxone pretreatment 10^−4 μM) was 74 ± 7 % control, the “TNF-α production after LPS” value ([3]; naloxone pretreatment 10^−5 μM) was 93 ± 4 % control and the “TNF-α production after LPS” value ([3]; naloxone pretreatment 10^−6 μM) was 90 ± 10 % control. The TNFα in medium ([4]; 0.1 μM pretreatment) was 4.10 ± 0.37 ng/mL, the TNFα in medium ([4]; 1 μM pretreatment) was 4.41 ± 0.36 ng/mL and the “reduction of TNFα production” value ([4]; 0.01-1 μM, THP1 cell culture after LPS stimulation) was 50%.

Reference: US7820689B2, “Methods and compositions for preventing or treating cardiovascular disease” (priority 2006, dated 2010)
